Tests used:
[1] = target: T1, GST-Flk1 (Mus musculus, UniProt P35918); test: GST-FLK-1 bioassay (bio flkGST); assay type: biochemical
T1 construct: GST-Flk1cd purified from sf9 recombinant baculovirus transformation; host or cells: Sf9 (baculovirus)

[2] = target: T2, PDGFR-β (Homo sapiens, UniProt P09619); test: PDGFR bioassay (bio PDGF); assay type: biochemical
T2 construct: host or cells: NIH 3T3

[3] = target: T3, EGFR (Homo sapiens, UniProt P00533); test: EGFR bioassay (bio EGF); assay type: biochemical
T3 construct: A431 cell lysate (SUGEN, Inc.); host or cells: A431
T3 sequence (P00533 25-1210): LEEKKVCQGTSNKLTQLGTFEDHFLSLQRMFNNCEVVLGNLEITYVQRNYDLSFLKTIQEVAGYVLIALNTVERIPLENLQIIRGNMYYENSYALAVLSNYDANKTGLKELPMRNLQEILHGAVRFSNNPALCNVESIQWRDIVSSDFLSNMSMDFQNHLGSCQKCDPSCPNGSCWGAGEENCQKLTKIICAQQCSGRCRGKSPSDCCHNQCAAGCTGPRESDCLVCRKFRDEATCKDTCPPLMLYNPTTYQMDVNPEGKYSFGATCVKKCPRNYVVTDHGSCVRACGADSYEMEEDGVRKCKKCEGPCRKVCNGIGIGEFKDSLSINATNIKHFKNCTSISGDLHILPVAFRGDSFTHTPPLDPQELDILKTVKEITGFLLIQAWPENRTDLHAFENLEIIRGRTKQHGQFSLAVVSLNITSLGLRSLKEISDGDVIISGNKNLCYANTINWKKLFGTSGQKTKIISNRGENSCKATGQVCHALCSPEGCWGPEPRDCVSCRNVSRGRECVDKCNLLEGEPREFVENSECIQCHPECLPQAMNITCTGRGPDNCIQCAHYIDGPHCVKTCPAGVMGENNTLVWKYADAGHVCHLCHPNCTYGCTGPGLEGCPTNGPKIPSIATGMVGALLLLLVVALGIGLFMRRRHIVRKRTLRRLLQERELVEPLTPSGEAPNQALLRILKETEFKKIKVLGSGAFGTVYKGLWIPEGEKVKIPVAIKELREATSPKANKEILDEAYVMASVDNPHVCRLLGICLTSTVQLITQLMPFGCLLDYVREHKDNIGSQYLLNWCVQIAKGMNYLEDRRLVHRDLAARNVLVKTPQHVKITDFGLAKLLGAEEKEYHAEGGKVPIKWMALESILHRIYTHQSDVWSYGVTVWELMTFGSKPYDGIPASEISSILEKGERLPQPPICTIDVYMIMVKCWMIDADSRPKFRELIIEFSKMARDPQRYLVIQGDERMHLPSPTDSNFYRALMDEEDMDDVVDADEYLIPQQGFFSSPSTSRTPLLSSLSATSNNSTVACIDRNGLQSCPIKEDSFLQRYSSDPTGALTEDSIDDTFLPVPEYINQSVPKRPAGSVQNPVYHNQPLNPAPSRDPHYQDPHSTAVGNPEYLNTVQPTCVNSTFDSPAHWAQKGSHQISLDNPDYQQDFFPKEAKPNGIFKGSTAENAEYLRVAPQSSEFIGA

[4] = target: T3, EGFR; test: cell EGF assay; assay type: cell-based
Method: Several of the assays described herein are performed in an ELISA (Enzyme-Linked Immunosorbent Sandwich Assay) format (Voller, et al., 1980, “Enzyme-Linked Immunosorbent Assay,” Manual of Clinical Immunology, 2d ed., Rose and Friedman, Am. Soc. Of Microbiology, Washington, D.C., pp. 359-371). The general procedure is as follows: a compound is introduced to cells expressing the test kinase, either naturally or recombinantly, for a selected period of time after which, if the test kinase is a receptor, a ligand known to activate the receptor is added. The cells are lysed and the lysate is transferred to the wells of an ELISA plate previously coated with a specific antibody recognizing the substrate of the enzymatic phosphorylation reaction. Non-substrate components of the cell lysate are washed away and the amount of phosphorylation on the substrate is detected with an antibody specifically recognizing phosphotyrosine compared with control cells that were not contacted with a test compound.

[5] = target: T4, HER-2 kinase (Homo sapiens, UniProt P04626); test: Cellular HER-2 kinase assay; assay type: cell-based; settings: read-out: Her2 Kinase IC50
T4 construct: Use EGFr/HER-2 chimera/3T3-C7 cell line for this assay; It is expressed in mouse NIH 3T3 clone C7 cells; P00533 (Epidermal growth factor receptor)
T4 sequence (P04626 720-987 limits assumed): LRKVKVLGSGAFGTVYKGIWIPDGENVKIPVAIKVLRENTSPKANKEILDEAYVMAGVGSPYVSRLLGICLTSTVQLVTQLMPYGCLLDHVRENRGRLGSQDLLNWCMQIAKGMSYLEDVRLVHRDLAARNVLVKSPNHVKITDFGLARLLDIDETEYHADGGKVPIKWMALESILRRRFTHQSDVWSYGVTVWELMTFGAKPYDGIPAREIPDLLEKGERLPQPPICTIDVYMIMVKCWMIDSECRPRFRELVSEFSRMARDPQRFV

T2 sequence (P09619 33-1106): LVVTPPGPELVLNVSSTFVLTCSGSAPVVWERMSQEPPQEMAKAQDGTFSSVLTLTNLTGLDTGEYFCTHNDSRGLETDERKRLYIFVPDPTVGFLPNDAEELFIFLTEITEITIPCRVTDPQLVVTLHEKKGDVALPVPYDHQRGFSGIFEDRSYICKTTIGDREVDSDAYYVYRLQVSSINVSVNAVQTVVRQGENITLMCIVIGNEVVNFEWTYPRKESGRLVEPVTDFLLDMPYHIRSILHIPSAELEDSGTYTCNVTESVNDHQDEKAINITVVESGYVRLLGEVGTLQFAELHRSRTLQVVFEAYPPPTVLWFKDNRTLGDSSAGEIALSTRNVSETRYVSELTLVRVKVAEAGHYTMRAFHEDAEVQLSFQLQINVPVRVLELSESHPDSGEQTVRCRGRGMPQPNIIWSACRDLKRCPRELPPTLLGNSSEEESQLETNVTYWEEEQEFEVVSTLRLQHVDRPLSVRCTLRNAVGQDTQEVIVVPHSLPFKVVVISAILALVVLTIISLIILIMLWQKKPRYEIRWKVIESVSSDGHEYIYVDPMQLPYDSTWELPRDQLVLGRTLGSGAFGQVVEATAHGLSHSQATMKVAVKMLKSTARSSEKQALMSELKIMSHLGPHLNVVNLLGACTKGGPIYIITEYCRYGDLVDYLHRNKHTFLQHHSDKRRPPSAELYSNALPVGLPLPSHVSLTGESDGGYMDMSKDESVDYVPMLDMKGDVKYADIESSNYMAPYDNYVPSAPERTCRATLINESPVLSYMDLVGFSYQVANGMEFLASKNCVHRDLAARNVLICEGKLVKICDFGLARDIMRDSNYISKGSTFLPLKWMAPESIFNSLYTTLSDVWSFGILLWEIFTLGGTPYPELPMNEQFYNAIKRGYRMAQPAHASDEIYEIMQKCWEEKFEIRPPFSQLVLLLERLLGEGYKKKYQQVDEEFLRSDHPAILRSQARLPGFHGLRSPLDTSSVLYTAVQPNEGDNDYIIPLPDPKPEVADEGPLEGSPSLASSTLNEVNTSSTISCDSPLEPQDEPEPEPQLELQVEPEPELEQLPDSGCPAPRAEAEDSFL
T1 sequence (P35918 784-1345 limits assumed): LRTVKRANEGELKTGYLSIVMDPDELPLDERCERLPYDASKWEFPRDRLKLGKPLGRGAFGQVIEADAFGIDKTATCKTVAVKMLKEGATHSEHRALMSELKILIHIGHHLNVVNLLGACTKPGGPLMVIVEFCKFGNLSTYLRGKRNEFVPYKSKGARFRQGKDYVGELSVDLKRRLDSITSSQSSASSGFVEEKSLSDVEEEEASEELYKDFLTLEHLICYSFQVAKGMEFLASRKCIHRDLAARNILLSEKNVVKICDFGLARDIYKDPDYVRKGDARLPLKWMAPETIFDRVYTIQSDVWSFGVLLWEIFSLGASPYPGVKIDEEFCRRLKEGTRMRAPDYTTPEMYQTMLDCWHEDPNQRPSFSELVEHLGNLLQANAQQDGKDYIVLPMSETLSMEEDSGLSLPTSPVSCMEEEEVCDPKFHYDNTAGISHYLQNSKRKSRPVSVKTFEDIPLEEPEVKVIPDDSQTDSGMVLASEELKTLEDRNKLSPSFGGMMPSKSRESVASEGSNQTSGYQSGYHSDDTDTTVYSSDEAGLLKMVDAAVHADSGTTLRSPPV

Row | SMILES | IC50 [1] | IC50 [2] | IC50 [3] | IC50 [4] | IC50 [5]
1 | Cc1cc(C(=O)O)[nH]c1/C=C1\C(=O)N(C)c2ccccc21 [Example 2, 4-Methyl-5-(1-methyl-2-oxo-1,2-dihydroindol-3-ylidenemethyl)-1H-pyrrole-2-carboxylic acid] | > 100 µM | > 100 µM | > 100 µM | > 100 µM | 
2 | O=C1Nc2ccc(Br)cc2/C1=C/c1[nH]c(C(=O)NCCCN2CCCC2)c2c1CCCC2 [Example 19, 3-(5-Bromo-2-oxo-1,2-dihydroindol-3-ylidenemethyl)-4,5,6,7-tetrahydro-2H-isoindole-1-carboxylic acid (3-pyrrolidin-1-ylpropyl)amide] | 7.5 µM |  | 6.86 µM | 34.2 µM | 8.37 µM
3 | Cc1[nH]c(/C=C2\C(=O)Nc3ccc(-c4ccccc4)cc32)c(C)c1C(=O)NCCCN(C)C [Example 66, 2,4-Dimethyl-5-(2-oxo-5-phenyl-1,2-dihydroindol-3-ylidenemethyl)-1H-pyrrole-3-carboxylic acid (3-dimethylamino-propyl)amide] | < 0.05 µM |  | > 100 µM | 11.8 µM | 2.76 µM
4 | COc1ccccc1-c1ccc2c(c1)NC(=O)/C2=C\c1[nH]c(C)c(C(=O)NCCN(C)C)c1-c1ccccc1 [Example 45, 5-[6-(2-Methoxy-phenyl)-2-oxo-1,2-dihydroindol-3-ylidenemethyl]-2-methyl-4-phenyl-1H-pyrrole-3-carboxylic acid (2-dimethylamino-ethyl)amide] | 1.71 µM |  |  | 30 µM | 
5 | COc1ccccc1-c1ccc2c(c1)NC(=O)/C2=C\c1[nH]c(C)c(C(=O)NCCN(C)C)c1C [Example 54, 5-[6-(2-Methoxy-phenyl)-2-oxo-1,2-dihydroindol-3-ylidenemethyl)-2,4-dimethyl-1H-pyrrole-3-carboxylic acid (2-dimethylamino-ethyl)amide] | 1.98 µM |  | 23.9 µM | 9.76 µM | 7.02 µM
6 | Cc1cc(C(=O)NCCCN2CCCC2)[nH]c1/C=C1\C(=O)Nc2ccc(Br)cc21 [Example 6, 5-(5-Bromo-2-oxo-1,2-dihydroindol-3-ylidenemethyl)-4-methyl-1H-pyrrole-2-carboxylic acid (3-pyrrolidin-1-ylpropyl)amide] | 4.04 µM |  | 3.26 µM | 7.82 µM | 2.43 µM
7 | Cc1[nH]c(/C=C2\C(=O)Nc3cc(-c4ccccc4)ccc32)c(C)c1C(=O)NCCCn1ccnc1 [Example 61, 2,4-Dimethyl-5-(2-oxo-6-phenyl-1,2-dihydroindol-3-ylidenemethyl)-1H-pyrrole-3-carboxylic acid (3-imidazol-1-ylpropyl)amide] |  | < 0.78 µM | > 100 µM | > 100 µM | > 100 µM
8 | CCN(CC)CCCNC(=O)c1c(C)[nH]c(/C=C2\C(=O)Nc3cccc(C(=O)Nc4ccc(OC)c(Cl)c4)c32)c1C [Example 69, 3-[4-(3-Diethylamino-propylcarbamoyl)-3,5-dimethyl-1H-pyrrol-2-ylmethylene]-2-oxo-2,3-dihydro-1H-indole-4-carboxylic acid (3-chloro-4-methoxy-phenyl)amide] | 0.3 µM | 56.5 µM |  | 97.5 µM | 
9 | Cc1[nH]c(/C=C2\C(=O)Nc3ccc(Cl)cc32)c(C)c1C(=O)NCCN(C)C [Example 50, 5-(5-Chloro-2-oxo-1,2-dihydroindol-3-ylidenemethyl)-2,4-dimethyl-1H-pyrrole-3-carboxylic acid (2-dimethylamino-ethyl)amide] |  |  |  | 20.3 µM | 
10 | CC(=O)c1c(/C=C2\C(=O)Nc3ccc(Br)cc32)[nH]c(C(=O)NCCCN2CCCC2)c1C [Example 30, 4-Acetyl-5-(5-bromo-2-oxo-1,2-dihydroindol-3-ylidenemethyl)-3-methyl-1H-pyrrole-2-carboxylic acid (3-pyrrolidin-1-ylpropyl)amide] | 9.4 µM | > 100 µM | 18.7 µM |  | 4.1 µM
11 | Cc1[nH]c(/C=C2\C(=O)Nc3ccc(Br)cc32)c(C)c1C(=O)NCCCn1ccnc1 [Example 53, 5-(5-Bromo-2-oxo-1,2-dihydroindol-3-ylidenemethyl)-2,4-dimethyl-1H-pyrrole-3-carboxylic acid (3-imidazol-1-ylpropyl)amide] |  | < 0.78 µM | > 100 µM | > 100 µM | > 100 µM
12 | CCN(CC)CCCNC(=O)c1[nH]c(/C=C2\C(=O)Nc3ccc(Br)cc32)cc1C [Example 13, 5-(5-Bromo-2-oxo-1,2-dihydroindol-3-ylidenemethyl)-3-methyl-1H-pyrrole-2-carboxylic acid (3-diethylaminopropyl)amide] | > 20 µM | 81.9 µM | 8.17 µM |  | 2.66 µM
13 | CC(=O)c1c(/C=C2\C(=O)Nc3ccc(Br)cc32)[nH]c(C(=O)NCCCO)c1C [Example 32, 4-Acetyl-5-(5-bromo-2-oxo-1,2-dihydroindol-3-ylidenemethyl)-3-methyl-1H-pyrrole-2-carboxylic acid (3-hydroxy-propyl)amide] | 45.7 µM | 5.94 µM | > 100 µM |  | > 100 µM
14 | COc1ccc(C(C)C)cc1-c1ccc2c(c1)NC(=O)/C2=C\c1[nH]c(C)c(C(=O)NCCN2CCCC2)c1C [Example 76, 5-[6-(5-Isopropyl-2-methoxy-phenyl)-2-oxo-1,2-dihydroindol-3-ylidenemethyl]-2,4-dimethyl-1H-pyrrole-3-carboxylic acid (2-pyrrolidin-1-yl-ethyl)amide] | 3.33 µM | 19.2 µM | 5.11 µM |  | 3.01 µM
15 | CC(C)c1[nH]c(/C=C2\C(=O)Nc3ccc(Br)cc32)c(-c2ccccc2)c1C(=O)NCCCN1CCN(C)CC1 [Example 40, 5-(5-Bromo-2-oxo-1,2-dihydroindol-3-ylidenemethyl)-2-isopropyl-4-phenyl-1H-pyrrole-3-carboxylic acid [3-(4-methyl-piperazin-1-yl)-propyl]amide] | 4.5 µM | 7.9 µM | 6.52 µM |  | 6.27 µM

Continued, values first:

Row | IC50 [1] | IC50 [2] | IC50 [3] | IC50 [4] | IC50 [5] | SMILES
16 | 11.5 µM |  | > 100 µM | 41.2 µM | 8 µM | CCN(CC)CCNC(=O)c1[nH]c(/C=C2\C(=O)Nc3cc(-c4cccnc4)ccc32)c2c1CCCC2 [Example 20, 3-(2-Oxo-6-pyridin-3-yl-1,2-dihydroindol-3-ylidenemethyl)-4,5,6,7-tetrahydro-2H-isoindole-1-carboxylic acid (2-diethylaminoethyl)amide]
17 |  | < 0.78 µM | > 100 µM | > 100 µM | > 100 µM | Cc1[nH]c(/C=C2\C(=O)Nc3cc(-c4ccccc4)ccc32)c(C)c1C(=O)NCCN1CCCC1 [Example 60, 2,4-Dimethyl-5-(2-oxo-6-phenyl-1,2-dihydroindol-3-ylidenemethyl)-1H-pyrrole-3-carboxylic acid (2-pyrrolidin-1-yl-ethyl)amide]
18 |  |  |  | 43.9 µM |  | Cc1[nH]c(/C=C2\C(=O)Nc3cc(-c4ccccc4)ccc32)c(C)c1C(=O)NCCN(C)C [Example 49, 2,4-Dimethyl-5-(2-oxo-6-phenyl-1,2-dihydroindol-3-ylidenemethyl)-1H-pyrrole-3-carboxylic acid (2-dimethylamino-ethyl)amide]
19 |  | < 0.78 µM | > 100 µM | > 100 µM | > 100 µM | CCN(CC)CCNC(=O)c1c(C)[nH]c(/C=C2\C(=O)Nc3cc(-c4ccccc4)ccc32)c1C [Example 59, 2,4-Dimethyl-5-(2-oxo-6-phenyl-1,2-dihydroindol-3-ylidenemethyl)-1H-pyrrole-3-carboxylic acid (2-diethylaminoethyl)amide]
20 | 0.21 µM | 0.18 µM | > 100 µM |  | > 100 µM | CCN(CC)CCNC(=O)c1c(C)[nH]c(/C=C2\C(=O)Nc3cc(C(=O)O)ccc32)c1C [Example 81, 3-[4-(2-diethylaminoethylcarbamoyl)-3,5-dimethyl-1H-pyrrol-2-ylmethylene]-2-oxo-2,3-dihydro-1H-indole-6-carboxylic acid]
21 | 13 µM | 42.4 µM | > 100 µM |  | 66 µM | CCN(CC)CCCNC(=O)c1[nH]c(/C=C2\C(=O)Nc3cc(-c4ccccc4)ccc32)cc1C [Example 14, 3-Methyl-5-(2-oxo-6-phenyl-1,2-dihydroindol-3-ylidenemethyl)-1H-pyrrole-2-carboxylic acid (3-diethylaminopropyl)amide]
22 | 2.67 µM |  | 2.57 µM | 9.23 µM | 4.99 µM | CCN(CC)CCCNC(=O)c1[nH]c(/C=C2\C(=O)Nc3ccc(Br)cc32)c2c1CCCC2 [Example 18, 3-(5-Bromo-2-oxo-1,2-dihydroindol-3-ylidenemethyl)-4,5,6,7-tetrahydro-2H-isoindole-1-carboxylic acid (3-diethylaminopropyl)amide]

Reference: patent US6573293B2, “Pyrrole substituted 2-indolinone protein kinase inhibitors” (Sugen, Inc., priority 2000, dated 2003)
